As a reminder, the half-life is how long it takes for the measured level to halve.

For data set [1] the following is noted: prior art U.S. Pat. No. 5,880,117; humans; cited from earlier work.
Another data set is described as follows: in vivo. Conditions: delivered sublingually or transmucosally. How it is done:
7-methoxyflavone is an aromatase inhibitor. Aromatase inhibitors work by inhibiting the action of the enzyme aromatase, which converts androgens into estrogens by a process called aromatization. 7-methoxyflavone is a compound having poor bioavailability of about 5% when ingested. According to an embodiment of the present invention, from about 5 mg to 50 mg, and preferably from about 20 mg to 30 mg of 7-methoxyflavone may be included in the formulations and dosage forms of the present invention, when delivered sublingually or transmucosally. […] According to an embodiment, the 7-methoxyflavone may be from a plant extract. 7-methoxyflavone has been found in Meliaceae and Rutaceae plants. According to an embodiment, the 7-methoxyflavone may therefore be from an extract containing at least 90% 7-methoxyflavone, standardized. Preferably, extract contains at least […] 7-methoxyflavone, standardized.
According to an embodiment of the present invention, from about 5 mg to 50 mg, and preferably from about 20 mg to 30 mg of 7,8-benzoflavone may be included in the formulations and dosage forms of the present invention, when delivered sublingually or transmucosally. According to an embodiment, the half-life of 7,8-benzoflavone is about 1-2 h when delivered sublingually or transmucosally.

The conditions of data set [2]: in vivo; cited from earlier work.

The structures appear in SMILES notation.

For the compound `C[C@]12CC[C@H]3[C@@H](CCC4=C[C@@H](O)CC[C@@]43C)[C@@H]1CC[C@@H]2O` [4-androstene-3β, 17β-diol], in data set [1], the “time of concentration peak after administration” value is not above 90 min.
In the data set “in vivo”, `O=c1cc(-c2ccccc2)oc2c1ccc1ccccc12` [7,8-benzoflavone, 2-phenyl-benzo(h)chromen-4-one] registered a half-life of 1 to 2 h.
In the case of `COc1ccc2c(=O)cc(-c3ccccc3)oc2c1` [7-methoxyflavone], the half-life in the data set “in vivo” was in the range of 8 to 12 h. Moreover, the bioavailability result in data set [2] was “about 5%”.

(Values after patent publication US20160361258A1 (priority 2015, published 2016).)
